Data taken from ChEMBL document CHEMBL3886759, “Indole-1-carboxamides as kinase inhibitors” (2016).

Assays:
[1] = target: Platelet-derived growth factor receptor beta (Homo sapiens, UniProt P09619); assay: (§1) Kinase Assay: Biochemical PDGFRβ kinase assays were performed in 96 well microtiter plates that were coated overnight with 75 μg of poly-Glu-Tyr (4:1) in 10 mM Phosphate Buffered Saline (PBS), pH 7.4. The coated plates were washed with 2 mls per well PBS+0.05% Tween-20 (PBS-T), blocked by incubation with PBS containing 1% BSA, then washed with 2 mls per well PBS-T prior to starting the reaction. Reactions were carried out in 100 μL reaction volumes containing 36 μM ATP in kinase buffer (50 mM Hepes buffer pH 7.4, 20 mM MgCl2, 0.1 mM MnCl2 and 0.2 mM Na3VO4). Test compounds were reconstituted in 100% DMSO and added to the reaction to give a final DMSO concentration of 5%. Reactions were initiated by the addition 20 ul per well of kinase buffer containing 200-300 ng purified cytoplasmic domain PDGFR-b protein (Millipore). Following a 60 minute incubation at 30° C., the reactions were washed 2 mls per well PBS-T.
[2] = target: Vascular endothelial growth factor receptor 2 (Homo sapiens, UniProt P35968); assay: as §1, with “KDR” for “PDGFRβ”, “μg/well” for “μg”, “2.7” for “36”, “KDR” for “PDGFR-b”, “(BPS Bioscience, San Diego, Calif.).” for “(Millipore). Following a 60 minute incubation at 30° C., the reactions were washed 2 mls per well PBS-T.”
Sequence of Vascular endothelial growth factor receptor 2 (P35968 whole entry): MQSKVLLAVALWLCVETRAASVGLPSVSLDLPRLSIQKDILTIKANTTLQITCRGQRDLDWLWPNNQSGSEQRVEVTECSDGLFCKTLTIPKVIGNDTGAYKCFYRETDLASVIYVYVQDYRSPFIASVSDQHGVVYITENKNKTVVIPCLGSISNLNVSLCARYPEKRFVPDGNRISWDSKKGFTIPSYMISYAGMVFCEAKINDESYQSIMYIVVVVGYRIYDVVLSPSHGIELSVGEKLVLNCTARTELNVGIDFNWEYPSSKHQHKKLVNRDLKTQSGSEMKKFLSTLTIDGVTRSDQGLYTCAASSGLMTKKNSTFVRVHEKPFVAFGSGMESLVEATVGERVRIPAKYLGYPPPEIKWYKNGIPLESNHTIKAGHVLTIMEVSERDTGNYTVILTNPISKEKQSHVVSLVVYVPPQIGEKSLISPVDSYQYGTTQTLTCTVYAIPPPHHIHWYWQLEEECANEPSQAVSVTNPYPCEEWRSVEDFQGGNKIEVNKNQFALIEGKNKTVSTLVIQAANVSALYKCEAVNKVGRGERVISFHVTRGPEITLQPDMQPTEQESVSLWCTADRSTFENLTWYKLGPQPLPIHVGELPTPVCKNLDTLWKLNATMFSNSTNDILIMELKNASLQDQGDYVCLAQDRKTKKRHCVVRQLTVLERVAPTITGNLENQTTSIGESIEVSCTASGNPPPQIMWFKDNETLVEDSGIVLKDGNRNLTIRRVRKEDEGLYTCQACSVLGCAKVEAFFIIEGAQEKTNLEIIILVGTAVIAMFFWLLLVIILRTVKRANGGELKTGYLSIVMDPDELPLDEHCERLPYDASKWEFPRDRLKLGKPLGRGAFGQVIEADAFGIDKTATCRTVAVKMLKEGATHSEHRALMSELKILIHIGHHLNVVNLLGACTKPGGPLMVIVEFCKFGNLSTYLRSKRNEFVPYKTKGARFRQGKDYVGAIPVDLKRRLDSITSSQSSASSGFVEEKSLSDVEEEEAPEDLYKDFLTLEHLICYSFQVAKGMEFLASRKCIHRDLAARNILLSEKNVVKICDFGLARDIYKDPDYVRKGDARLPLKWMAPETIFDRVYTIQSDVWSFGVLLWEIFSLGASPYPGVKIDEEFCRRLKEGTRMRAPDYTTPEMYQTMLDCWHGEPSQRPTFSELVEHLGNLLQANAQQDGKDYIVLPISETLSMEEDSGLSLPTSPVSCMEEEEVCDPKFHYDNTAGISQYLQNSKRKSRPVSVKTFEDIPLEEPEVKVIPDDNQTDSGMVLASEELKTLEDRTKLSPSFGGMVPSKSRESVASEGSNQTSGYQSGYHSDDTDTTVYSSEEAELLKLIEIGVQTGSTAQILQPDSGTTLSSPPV

Sequence of Platelet-derived growth factor receptor beta (P09619 whole entry, the tested form may be a part): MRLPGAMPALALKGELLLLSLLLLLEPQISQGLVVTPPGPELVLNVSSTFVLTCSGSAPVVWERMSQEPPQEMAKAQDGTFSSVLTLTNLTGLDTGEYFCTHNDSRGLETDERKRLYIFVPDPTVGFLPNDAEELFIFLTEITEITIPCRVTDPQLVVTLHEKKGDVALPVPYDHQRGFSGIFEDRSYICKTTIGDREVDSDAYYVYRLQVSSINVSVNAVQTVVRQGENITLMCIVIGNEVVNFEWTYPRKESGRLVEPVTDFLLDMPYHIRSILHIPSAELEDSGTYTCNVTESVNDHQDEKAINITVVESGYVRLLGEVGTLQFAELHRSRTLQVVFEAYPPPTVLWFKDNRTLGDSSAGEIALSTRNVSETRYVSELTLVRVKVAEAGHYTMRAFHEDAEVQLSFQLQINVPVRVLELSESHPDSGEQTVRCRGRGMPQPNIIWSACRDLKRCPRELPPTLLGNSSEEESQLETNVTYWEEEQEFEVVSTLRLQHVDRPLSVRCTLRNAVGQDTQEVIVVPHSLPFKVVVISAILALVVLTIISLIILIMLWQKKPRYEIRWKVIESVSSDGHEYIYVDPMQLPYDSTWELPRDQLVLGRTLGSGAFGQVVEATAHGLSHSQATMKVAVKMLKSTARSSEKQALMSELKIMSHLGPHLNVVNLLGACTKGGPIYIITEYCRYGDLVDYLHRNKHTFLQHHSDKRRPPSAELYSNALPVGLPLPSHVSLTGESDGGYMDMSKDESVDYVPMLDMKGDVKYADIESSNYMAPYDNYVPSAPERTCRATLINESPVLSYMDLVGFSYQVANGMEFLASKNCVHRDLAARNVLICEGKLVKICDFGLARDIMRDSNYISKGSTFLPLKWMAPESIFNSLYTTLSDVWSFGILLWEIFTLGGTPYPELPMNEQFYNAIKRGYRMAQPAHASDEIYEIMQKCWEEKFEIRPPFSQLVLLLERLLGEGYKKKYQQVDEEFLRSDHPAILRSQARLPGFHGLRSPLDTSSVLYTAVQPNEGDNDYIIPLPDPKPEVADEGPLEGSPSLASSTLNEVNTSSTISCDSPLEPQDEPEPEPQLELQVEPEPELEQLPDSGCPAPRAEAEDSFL

IC50 [1]: 10 nM | IC50 [2]: 3 nM
Compound: CCc1cccc(NC(=O)Nc2ccc(-c3cc4ccccc4n3C(N)=O)cc2)c1
